The values below come from patent publication EP0369391A2, “N-substituted amides” (BOEHRINGER INGELHEIM PHARMACEUTICALS INC., priority 1988, dated 1990).

Experiment [1] concerns the target T1, human neutrophil elastase (HNE) (Homo sapiens, UniProt P08246).
T1 sequence (P08246 30-247 limits assumed): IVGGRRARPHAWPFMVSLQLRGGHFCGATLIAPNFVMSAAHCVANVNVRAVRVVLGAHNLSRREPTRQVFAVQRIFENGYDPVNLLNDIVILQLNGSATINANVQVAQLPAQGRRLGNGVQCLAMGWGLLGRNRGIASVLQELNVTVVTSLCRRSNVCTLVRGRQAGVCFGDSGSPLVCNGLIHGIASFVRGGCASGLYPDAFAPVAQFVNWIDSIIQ
Briefly: Elastase Inhibition - Animal Model (acute hamster hemorrhage model). The conditions noted are these: 20 ug i.t. compound, 50 µg HNE i.t., hemorrhage in lung lavage after 18 hours.

The target of experiment [2] is T2, Human sputum elastase ( HSE ) (Homo sapiens, UniProt P08246).
T2 construct: Human sputum elastase ( HSE ) (Elasten Products Co., Pacific, Mo.); purchased Elasten Products Co., Pacific, Mo; host or cells: human sputum (by the name of the product)
T2 sequence (P08246 30-267): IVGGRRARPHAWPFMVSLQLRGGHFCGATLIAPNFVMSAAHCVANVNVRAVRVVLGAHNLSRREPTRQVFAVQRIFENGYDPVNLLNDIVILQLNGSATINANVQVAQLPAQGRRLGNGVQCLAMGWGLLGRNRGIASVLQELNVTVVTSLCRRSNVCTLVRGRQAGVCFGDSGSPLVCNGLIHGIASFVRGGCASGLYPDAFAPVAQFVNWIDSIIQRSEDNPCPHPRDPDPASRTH
Description: Elastase Inhibition - In Vitro Method (hydrolysis of MeO-Suc-Ala-Ala-Pro-Val-pNA, microtiter format). In kind it is biochemical. The settings on record: for inhibition at 5 µg/mL: 5ug/mL compound; for IC50: 0.5 mM substrate, 15 minutes pre-incubation. From the text: The in vitro assay is based upon the hydrolysis of the commercially available (Sigma Chemical Company, St. Louis, Missouri) substrate methoxy O-succinyl-L-alanyl-L-alanyl-L-prolyl-L-valine para-nitroanilide (MeO-Suc-Ala-Sla-Pro-Val-pNA) and the resulting release of p-nitroanilide (pNA), which absorbs at 405 nm.
• a. Microtiter plates (96 well, flat bottom) • b. Vmax Kinetic Microtiter Plate Reader, equipped with 405 nm filter (Molecular Devices) • c. Microtiter Plate Mixer (Fisher Scientific) • d.
• a. Human sputum elastase ( HSE ) (Elasten Products Co., Pacific, Mo.) dissolved in 1 mg/mL in 0.05 M sodium chloride and frozen (50 µL aliquots) at -20°C until used. • b. Stock solution of MeO-Suc-Ala-Ala-Pro-Val-pNA dissolved at 15 mM in dimethylsulfoxide (DMSO) and frozen (4 mL aliquots) at -20°C until used. • c. Assay buffer: 0.1 M Tris buffer, pH 7.5 containing 0.5 sodium chloride
Screening is performed in microtiter plates, using 0.5 mM substrate and monitored on a Microtiter Reader. Enzyme activity (+/- test compound) is determined as the rate of pNA release (linear regression analysis of slope). Inhibitory activity of the test compound is calculated relative to the uninhibited enzyme control, as follows: [formula]
A frozen aliquot of HSE is thawed and diluted with assay buffer to a stock concentration of 0.02 mg/mL ( 30 x assay concentration). A frozen aliquot of the substrate stock solution is thawed and diluted to 0.5 mM with the assay buffer (final DMSO concentration is […]). 10 µl of the test compound stock solution (or assay buffer) and 10 µl of the HSE stock solution are pipetted into each microtiter well, in duplicate. The plate is mixed well, and pre-incubated at room temperature for 15 minutes. A 300 µl substrate solution is then added to each well and the OD₄₀₅ is followed for approximately 30 minutes.

The target of experiment [3] is T3, Human Renin (Homo sapiens, UniProt P00797).
T3 sequence (P00797 67-406): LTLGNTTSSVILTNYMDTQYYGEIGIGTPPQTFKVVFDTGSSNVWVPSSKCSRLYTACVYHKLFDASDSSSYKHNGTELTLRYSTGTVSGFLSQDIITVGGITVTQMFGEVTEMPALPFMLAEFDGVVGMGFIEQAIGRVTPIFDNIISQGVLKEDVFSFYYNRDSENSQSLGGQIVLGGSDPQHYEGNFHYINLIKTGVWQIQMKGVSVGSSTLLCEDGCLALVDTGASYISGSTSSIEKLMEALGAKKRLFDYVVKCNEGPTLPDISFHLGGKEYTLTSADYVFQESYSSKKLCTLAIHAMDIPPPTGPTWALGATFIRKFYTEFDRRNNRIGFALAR
Description: Selectivity assay: Human Renin. In kind it is biochemical. The conditions noted are these: IC50 of 5 or greater is considered inactive.

Experiment [4] concerns PT. The settings on record: IC50 of 5 or greater is considered inactive.
Experiment [5] addresses Human Urokinase (Homo sapiens, UniProt P00749). Description: Selectivity assay: Human Urokinase. It is filed as biochemical. The conditions noted are these: IC50 of 5 or greater is considered inactive.
Experiment [6] concerns the target T4, Human C1 Esterase (Homo sapiens, UniProt P09871).
T4 sequence (P09871 16-688): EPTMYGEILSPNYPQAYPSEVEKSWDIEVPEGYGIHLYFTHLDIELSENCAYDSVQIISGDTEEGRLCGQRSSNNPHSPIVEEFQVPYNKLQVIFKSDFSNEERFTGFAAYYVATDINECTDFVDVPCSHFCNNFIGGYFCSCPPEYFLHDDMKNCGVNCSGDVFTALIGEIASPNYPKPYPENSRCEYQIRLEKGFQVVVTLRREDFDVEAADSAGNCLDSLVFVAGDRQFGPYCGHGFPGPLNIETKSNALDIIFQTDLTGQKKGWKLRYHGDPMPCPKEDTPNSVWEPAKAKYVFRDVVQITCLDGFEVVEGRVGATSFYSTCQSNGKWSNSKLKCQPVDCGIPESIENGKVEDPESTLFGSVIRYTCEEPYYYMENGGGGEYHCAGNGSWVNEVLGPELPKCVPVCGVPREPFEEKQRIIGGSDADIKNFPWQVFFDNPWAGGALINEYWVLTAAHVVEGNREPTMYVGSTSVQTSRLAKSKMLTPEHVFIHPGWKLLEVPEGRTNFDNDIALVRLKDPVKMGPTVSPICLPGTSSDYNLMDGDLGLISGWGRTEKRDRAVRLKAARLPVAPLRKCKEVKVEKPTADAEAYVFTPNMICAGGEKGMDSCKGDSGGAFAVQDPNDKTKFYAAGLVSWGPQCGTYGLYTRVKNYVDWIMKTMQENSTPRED
Description: Selectivity assay: Human C1 Esterase. The conditions noted are these: IC50 of 5 or greater is considered inactive. It is filed as biochemical.

Experiment [7] relates to APTT. Briefly: Selectivity assay: APTT. The settings on record: IC50 of 5 or greater is considered inactive.
Experiment [8] deals with Human Cathepsin B (Homo sapiens, UniProt P07858). Description: Selectivity assay: Human Cathepsin B. In kind it is biochemical. The settings on record: IC50 of 5 or greater is considered inactive.
For experiment [9], the target named is T5, Human Cathepsin G (Homo sapiens, UniProt P08311).
T5 sequence (P08311 21-244): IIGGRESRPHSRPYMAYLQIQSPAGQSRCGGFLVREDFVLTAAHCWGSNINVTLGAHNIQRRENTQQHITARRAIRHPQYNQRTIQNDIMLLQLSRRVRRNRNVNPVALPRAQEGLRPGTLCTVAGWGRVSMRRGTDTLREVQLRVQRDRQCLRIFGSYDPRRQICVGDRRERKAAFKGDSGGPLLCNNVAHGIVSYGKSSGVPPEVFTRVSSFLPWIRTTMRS
Description: Selectivity assay: Human Cathepsin G. In kind it is biochemical. The settings on record: IC50 of 5 or greater is considered inactive.

The subject of experiment [10] is Total Complement. Description: Selectivity assay: Total Complement. The settings on record: IC50 of 5 or greater is considered inactive.
In experiment [11] the target is Tissue Plasminogen Activator (Homo sapiens, UniProt P00750). Briefly: Selectivity assay: Tissue Plasminogen Activator. It is filed as biochemical. The settings on record: IC50 of 5 or greater is considered inactive.
The target in experiment [12] is Polio 3C - Proteinase (Poliovirus type 1, UniProt P03300). Description: biochemical.
Where [13] appears, read: 0 % HSA, read-out: % Inhib. (5ug/mL) 0 % HSA.
Where [14] appears, read: 0.5 % HSA added, read-out: % Inhib. (5ug/mL) 0.5 % HSA.

The structures appear in SMILES notation. Several values for one entry are separate records, joined by “and”; a condition that tells them apart may be missing. Equal entries are not always repeated. Where two headings read alike, the source gives them in different places.

Sequence of Tissue Plasminogen Activator (P00750 36-562): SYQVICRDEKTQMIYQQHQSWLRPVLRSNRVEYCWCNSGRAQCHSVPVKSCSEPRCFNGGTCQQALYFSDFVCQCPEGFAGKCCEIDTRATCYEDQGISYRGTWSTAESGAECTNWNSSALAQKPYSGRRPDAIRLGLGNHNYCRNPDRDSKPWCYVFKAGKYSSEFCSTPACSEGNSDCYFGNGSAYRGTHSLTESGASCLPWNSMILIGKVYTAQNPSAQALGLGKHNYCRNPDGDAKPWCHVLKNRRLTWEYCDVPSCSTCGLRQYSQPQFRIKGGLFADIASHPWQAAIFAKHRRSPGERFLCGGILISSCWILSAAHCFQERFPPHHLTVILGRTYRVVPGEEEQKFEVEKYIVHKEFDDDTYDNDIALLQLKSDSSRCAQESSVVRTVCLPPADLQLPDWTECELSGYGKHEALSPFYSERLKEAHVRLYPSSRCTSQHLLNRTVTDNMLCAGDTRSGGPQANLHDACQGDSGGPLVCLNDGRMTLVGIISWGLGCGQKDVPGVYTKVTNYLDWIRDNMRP
Sequence of Polio 3C - Proteinase (P03300 1566-1748 limits assumed): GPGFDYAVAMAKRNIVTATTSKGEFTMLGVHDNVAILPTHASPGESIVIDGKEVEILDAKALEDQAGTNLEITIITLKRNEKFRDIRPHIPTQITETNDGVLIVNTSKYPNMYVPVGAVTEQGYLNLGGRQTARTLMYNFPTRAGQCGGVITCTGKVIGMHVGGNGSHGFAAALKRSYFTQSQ

For the compound `CC(C)C(NC(=O)CN(C(=O)[C@@H](NC(=O)c1ccc(C(=O)NS(=O)(=O)c2ccc(Cl)cc2)cc1)C(C)C)C1CCCC1)C(=O)C(F)(F)F` (single isomer, unassigned) [Cyclopentyl, p-[p-Cl(C6H4)SO2NHCO](C6H4)CO - (Diastereomer of Above), [[4-(4-Chlorophenyl)sulfonylaminocarbonyl]phenyl-1-oxomethyl]-L-Valyl-N-cyclopentyl-glycyl-N-[3-(1,1,1-trifluoro-4-methyl-2-oxypentyl)]amide], in experiment [1], the “% Inhib. (20 ug. i.t.)” value is listed as 99.0%. The inhibition at 5 µg/mL in experiment [2] (setting [13]) is 99.8%; in experiment [2] (setting [14]), 99.7%.
As to `CC(C)C(NC(=O)CN(C(=O)[C@@H](NC(=O)c1ccc(C(=O)NS(=O)(=O)c2ccc(Cl)cc2)cc1)C(C)C)C1CCCC1)C(=O)C(F)(F)F` (single isomer, unassigned) [[[4-(4-Chlorophenyl)sulfonylaminocarbonyl]phenyl-1-oxomethyl]-L-Valyl-N-cyclopentyl-glycyl-N-[3-(1,1,1-trifluoro-4-methyl-2-oxypentyl)]amide], in [1], the “% Inhib. (20 ug. i.t.)” value is recorded as 99.2%. Also, the inhibition at 5 µg/mL came to 100% in experiment [2] (setting [13]) and 99.8% in experiment [2] (setting [14]). For the same compound, the IC50 in experiment [2] (Table I, read-out: IC50 (converted)) is 0.113 µM and 0.0923 µM.
`COc1ccc(CCN(CC(=O)NC(C(=O)C(F)(F)F)C(C)C)C(=O)[C@@H](NC(=O)OCc2ccccc2)C(C)C)cc1OC` (stereo partly shown) [3,4 - Dimethoxyphenethyl, CBZ]: the inhibition at 5 µg/mL was determined as 95.1% in experiment [2] (setting [13]) and 87.8% in experiment [2] (setting [14]). The IC50 in [2] (Table I) came out at 0.432 µg/mL.
For the compound `CC(C)C(NC(=O)CN(C(=O)[C@@H](NC(=O)c1ccc(C(=O)NS(=O)(=O)c2ccc(Cl)cc2)cc1)C(C)C)C1Cc2ccccc2C1)C(=O)C(F)(F)F` (stereo partly shown) [Compound of Table III], the IC50 is greater than 6.55 µM in experiment [3]; >> 100 ug/mL in [4]; greater than 6.55 µM in experiment [5]; greater than 6.55 µM in [6]; >> 100 ug/mL in experiment [7]; greater than 6.55 µM in experiment [8]. In addition, the half-inhibitory concentration (IC50) in [9] was greater than 9.17 µM; in [10], >> 100 ug/mL; in [11] it was greater than 6.55 µM; in experiment [12] it was greater than 82.5 µM.
On to `CC(C)C(NC(=O)CN(C(=O)[C@@H](NC(=O)OCc1ccccc1)C(C)C)C1CCCC1)C(=O)C(F)(F)F` (stereo partly shown) [Cyclopentyl, CBZ], for which the inhibition at 5 µg/mL in [2] (setting [13]) turned out to be 100%; in experiment [2] (setting [14]) it was 99.4%. The compound also came in with an IC50 in [2] (Table I) of 0.082 µg/mL.
Regarding `COc1ccc(CCN(CC(=O)NC(C(=O)C(F)(F)F)C(C)C)C(=O)[C@@H](NC(=O)c2ccc(C(=O)NS(=O)(=O)c3ccc(Cl)cc3)cc2)C(C)C)cc1OC` (stereo partly drawn) [[(4-(4-Chlorophenyl)sulfonylaminocarbonyl]phenyl-1-oxomethyl]-L-Valyl-N-[2-(3,4-dimethoxy)phenethyl] glycyl-N-[3-(1,1,1-trifluoro-4-methyl-2-oxypentyl)] amide], the “% Inhib. (20 ug. i.t.)” value in experiment [1] was determined as 90.2%. Also, the inhibition at 5 µg/mL in experiment [2] (setting [13]) came out at 98.8%; in experiment [2] (setting [14]) it was 96.3%. The IC50 in experiment [2] (IC50, Table I) is 0.103 µM.
Regarding `CC(C)C(NC(=O)CN(C(=O)[C@@H](NC(=O)c1ccc(C(=O)NS(=O)(=O)c2ccc(Cl)cc2)cc1)C(C)C)C1CC2CCC1C2)C(=O)C(F)(F)F` (stereo partly drawn) [[[4-(4-Chlorophenyl)sulfonylaminocarbonyl]phenyl-1-oxomethyl]-L-Valyl-N-(exo-bicyclo[2,2,1]hept-2-yl)glycyl-N-[3-(1,1,1-trifluoro-4-methyl-2-oxypentyl)]amide], the “% Inhib. (20 ug. i.t.)” value in experiment [1] is 93.8%. The inhibition at 5 µg/mL in experiment [2] (setting [13]) was determined as 99.8%; in [2] (setting [14]), 99.5%. This compound also displayed a concentration for half-maximal inhibition (IC50) in experiment [2] (Table I) of 0.045 µg/mL.
